pKi: −log10 of the molar value. Where two headings read alike, the source gives them in different places.
Target: GST-Bcl-2 (Homo sapiens (Human), UniProt P10415)
Assay: Time Resolved-Fluorescence Resonance Energy Transfer (TR-FRET) Bcl-2 binding assay
Procedure: Determination of the utility of compounds having Formula (I) as binders to and inhibitors of anti-apoptotic Bcl-2 proteins was performed using the Time Resolved-Fluorescence Resonance Energy Transfer (TR-FRET) Assay. Tb-anti-GST antibody was purchased from Invitrogen (Catalog No. PV4216).
(§1) Representative compounds were serially diluted in dimethyl sulfoxide (DMSO) starting at 50 μM (2× starting concentration; 10% DMSO) and 10 μL were transferred into a 384-well plate. The samples are then mixed on a shaker for 1 minute and incubated for an additional 3 hours at room temperature. For each assay, the probe/antibody and protein/probe/antibody were included on each assay plate as negative and positive controls, respectively. Fluorescence was measured on the Envision (Perkin Elmer) using a 340/35 nm excitation filter and 520/525 (F-Bak peptide) and 495/510 nm (Tb-labeled anti-Histidine antibody) emission filters.
as §1, with “The” for “Representative compounds were serially diluted in dimethyl sulfoxide (DMSO) starting at 50 μM (2× starting concentration; 10% DMSO) and 10 μL were transferred into a 384-well plate. The”, “were” for “are”
The inhibition constant (Ki) is the dissociation constant of an enzyme-inhibitor complex or a protein/small molecule complex, wherein the small molecule is inhibiting binding of one protein to another protein. So a large Ki value indicates a low binding affinity and a small Ki value indicates a high binding affinity.

[1] = GST-Bcl-2 1 nM, F-Bak peptide probe 100 nM, Tb-anti-GST antibody 1 nM, Ki by Wang's equation

Chain of GST-Bcl-2 (P10415 whole entry): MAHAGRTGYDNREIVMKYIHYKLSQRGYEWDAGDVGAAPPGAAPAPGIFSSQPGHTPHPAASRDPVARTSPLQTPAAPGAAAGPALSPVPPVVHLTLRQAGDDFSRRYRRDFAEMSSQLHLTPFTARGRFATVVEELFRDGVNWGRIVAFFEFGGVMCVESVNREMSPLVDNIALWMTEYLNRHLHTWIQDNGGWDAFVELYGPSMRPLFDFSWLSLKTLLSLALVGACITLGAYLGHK

Compound: CC1(C)CCC(CN2CCN(c3ccc(C(=O)NS(=O)(=O)c4ccc(OCC5(F)CCN(C6CC6)CC5)c([N+](=O)[O-])c4)c(Oc4cc5cc[nH]c5cc4F)c3)CC2)=C(c2ccc(Cl)cc2)C1 [Example 341, 4-(4-{[2-(4-chlorophenyl)-4,4-dimethylcyclohex-1-en-1-yl]methyl}piperazin-1-yl)-N-({4-[(1-cyclopropyl-4-fluoropiperidin-4-yl)methoxy]-3-nitrophenyl}sulfonyl)-2-[(6-fluoro-1H-indol-5-yl)oxy]benzamide]
- pKi [1]: 10.77

Compound: CC1(C)CCC(CN2CCN(c3ccc(C(=O)NS(=O)(=O)c4ccc(NCC5CN(C6CC6)CCO5)c([N+](=O)[O-])c4)c(Oc4cnc(N)c(Cl)c4)c3)CC2)=C(c2ccc(Cl)cc2)C1 (stereo not drawn) [Example 369, 2-[(6-amino-5-chloropyridin-3-yl)oxy]-4-(4-{[2-(4-chlorophenyl)-4,4-dimethylcyclohex-1-en-1-yl]methyl}piperazin-1-yl)-N-[(4-{[(4-cyclopropylmorpholin-2-yl)methyl]amino}-3-nitrophenyl)sulfonyl]benzamide]
- pKi [1]: 10.85

Compound: CC1(C)CCC(CN2CCN(c3ccc(C(=O)NS(=O)(=O)c4ccc(N[C@H]5CC[C@H](NC6CCOCC6)CC5)c([N+](=O)[O-])c4)c(Oc4cc5cc[nH]c5cc4F)c3)CC2)=C(c2ccc(Cl)cc2)C1 [Example 335, Trans-4-(4-{[2-(4-chlorophenyl)-4,4-dimethylcyclohex-1-en-1-yl]methyl}piperazin-1-yl)-2-[(6-fluoro-1H-indol-5-yl)oxy]-N-[(3-nitro-4-{[4-(tetrahydro-2H-pyran-4-ylamino)cyclohexyl]amino}phenyl)sulfonyl]benzamide]
- pKi: > 11.00

Compound: CN1CCC(Nc2ccc(S(=O)(=O)NC(=O)c3ccc(N4CCN(CC5=C(c6ccc(Cl)cc6)CC(C)(C)OC5)CC4)cc3Oc3cccc(Cl)c3)cc2[N+](=O)[O-])CC1 [Example 144, 2-(3-chlorophenoxy)-4-(4-{[4-(4-chlorophenyl)-6,6-dimethyl-5,6-dihydro-2H-pyran-3-yl]methyl}piperazin-1-yl)-N-({4-[(1-methylpiperidin-4-yl)amino]-3-nitrophenyl}sulfonyl)benzamide]
- pKi [1]: 10.55

Compound: Cc1cccc(Oc2cc(N3CCN(CC4=C(c5ccc(Cl)cc5)CC(C)(C)CC4)CC3)ccc2C(=O)NS(=O)(=O)c2ccc(NC3CCN(C)CC3)c([N+](=O)[O-])c2)c1 [Example 182, 4-(4-{[2-(4-chlorophenyl)-4,4-dimethylcyclohex-1-en-1-yl]methyl}piperazin-1-yl)-2-(3-methylphenoxy)-N-({4-[(1-methylpiperidin-4-yl)amino]-3-nitrophenyl}sulfonyl)benzamide]
- pKi [1]: 9.76

Compound: CN1CCC(Nc2ccc(S(=O)(=O)NC(=O)c3ccc(N4CCN(CC5=C(c6ccc(Cl)cc6)CC(C)(C)CC5)CC4)cc3Oc3cccc(C(F)(F)F)c3Cl)cc2[N+](=O)[O-])CC1 [Example 64, 4-(4-((2-(4-chlorophenyl)-4,4-dimethylcyclohex-1-en-1-yl)methyl)piperazin-1-yl)-2-(2-chloro-3-(trifluoromethyl)phenoxy)-N-((4-((1-methylpiperidin-4-yl)amino)-3-nitrophenyl)sulfonyl)benzamide]
- pKi [1]: 9.34

Compound: CN(C)Cc1ccccc1Oc1cc(N2CCN(Cc3ccccc3-c3ccc(Cl)cc3)CC2)ccc1C(=O)NS(=O)(=O)c1ccc(NCC2CCOCC2)c([N+](=O)[O-])c1 [Example 31, 4-(4-((4′-chloro-1,1′-biphenyl-2-yl)methyl)piperazin-1-yl)-2-(2-((dimethylamino)methyl)phenoxy)-N-((3-nitro-4-((tetrahydro-2H-pyran-4-ylmethyl)amino)phenyl)sulfonyl)benzamide]
- pKi [1]: 8.70

Compound: CC1(C)CC(c2ccc(Cl)cc2)=C(CN2CCN(c3ccc(C(=O)NS(=O)(=O)c4ccc(NCC5CCOCC5)c([N+](=O)[O-])c4)c(Oc4cc5cc[nH]c5cc4Cl)c3)CC2)CO1 [Example 275, 2-[(6-chloro-1H-indol-5-yl)oxy]-4-(4-{[4-(4-chlorophenyl)-6,6-dimethyl-5,6-dihydro-2H-pyran-3-yl]methyl}piperazin-1-yl)-N-({3-nitro-4-[(tetrahydro-2H-pyran-4-ylmethyl)amino]phenyl}sulfonyl)benzamide]
- pKi [1]: 10.09

Compound: Cc1c[nH]c2cccc(Oc3cc(N4CCN(CC5=C(c6ccc(Cl)cc6)CC(C)(C)CC5)CC4)ccc3C(=O)NS(=O)(=O)c3ccc(NC4CCN(C)CC4)c([N+](=O)[O-])c3)c12 [Example 66, 4-(4-((2-(4-chlorophenyl)-4,4-dimethylcyclohex-1-en-1-yl)methyl)piperazin-1-yl)-2-((3-methyl-1H-indol-4-yl)oxy)-N-((4-((1-methylpiperidin-4-yl)amino)-3-nitrophenyl)sulfonyl)benzamide]
- pKi [1]: 9.23

Compound: CC1(C)CCC(CN2CCN(c3ccc(C(=O)NS(=O)(=O)c4cnc(OCC5(F)CCN(C(CF)CF)CC5)c(C(F)(F)F)c4)c(Oc4cnc(N)c(Cl)c4)c3)CC2)=C(c2ccc(Cl)cc2)C1 [Example 405, 2-[(6-amino-5-chloropyridin-3-yl)oxy]-4-(4-{[2-(4-chlorophenyl)-4,4-dimethylcyclohex-1-en-1-yl]methyl}piperazin-1-yl)-N-{[6-({4-fluoro-1-[2-fluoro-1-(fluoromethyl)ethyl]piperidin-4-yl}methoxy)-5-(trifluoromethyl)pyridin-3-yl]sulfonyl}benzamide]
- pKi [1]: 9.45

Compound: CN1CCC(Nc2ccc(S(=O)(=O)NC(=O)c3ccc(N4CCN(CC5=C(c6ccc(Cl)cc6)CCCC5)CC4)cc3Oc3ccccc3Cl)cc2[N+](=O)[O-])CC1 [Example 43, 2-(2-chlorophenoxy)-4-(4-((2-(4-chlorophenyl)cyclohex-1-en-1-yl)methyl)piperazin-1-yl)-N-((4-((1-methylpiperidin-4-yl)amino)-3-nitrophenyl)sulfonyl)benzamide]
- pKi [1]: 10.47

Compound: CC1(C)CCC(CN2CCN(c3ccc(C(=O)NS(=O)(=O)c4ccc(NC5CCN(Cc6cscn6)CC5)c([N+](=O)[O-])c4)c(Oc4cc5cc[nH]c5cc4F)c3)CC2)=C(c2ccc(Cl)cc2)C1 [Example 245, 4-(4-{[2-(4-chlorophenyl)-4,4-dimethylcyclohex-1-en-1-yl]methyl}piperazin-1-yl)-2-[(6-fluoro-1H-indol-5-yl)oxy]-N-[(3-nitro-4-{[1-(1,3-thiazol-4-ylmethyl)piperidin-4-yl]amino}phenyl)sulfonyl]benzamide]
- pKi [1]: 9.32

Compound: CC1(C)CCC(CN2CCN(c3ccc(C(=O)NS(=O)(=O)c4ccc(NCC5COCCO5)c([N+](=O)[O-])c4)c(Oc4cnc(N)c(Cl)c4)c3)CC2)=C(c2ccc(Cl)cc2)C1 (stereo not drawn) [Example 346, 2-[(6-amino-5-chloropyridin-3-yl)oxy]-4-(4-{[2-(4-chlorophenyl)-4,4-dimethylcyclohex-1-en-1-yl]methyl}piperazin-1-yl)-N-({4-[(1,4-dioxan-2-ylmethyl)amino]-3-nitrophenyl}sulfonyl)benzamide]
- pKi [1]: > 11.00

Compound: 4-(4-{[4-(4-chlorophenyl)-6,6-dimethyl-5,6-dihydro-2H-pyran-3-yl]methyl)}piperazin-1-yl)-2-[(6-fluoro-1H-indol-5-yl)oxy]-N-({4-[(4-fluorotetrahydro-2H-pyran-4-yl)methoxy]-3-nitrophenyl}sulfonyl)benzamide [Example 297]
- pKi [1]: > 11.00

Compound: CC1(C)CCC(CN2CCN(c3ccc(C(=O)NS(=O)(=O)c4cnc(OCC5COCCO5)c(C#N)c4)c(Oc4cc5cc[nH]c5cc4F)c3)CC2)=C(c2ccc(Cl)cc2)C1 (stereo not drawn) [Example 305, 4-(4-{[2-(4-chlorophenyl)-4,4-dimethylcyclohex-1-en-1-yl]methyl}piperazin-1-yl)-N-{[5-cyano-6-(1,4-dioxan-2-ylmethoxy)pyridin-3-yl]sulfonyl}-2-[(6-fluoro-1H-indol-5-yl)oxy]benzamide]
- pKi [1]: 9.84

Compound: CN1CCC(Nc2ccc(S(=O)(=O)NC(=O)c3ccc(N4CCN(CC5=C(c6ccc(Cl)cc6)CC(C)(C)CC5)CC4)cc3Oc3cccc4c3ccn4C(=O)OC(C)(C)C)cc2[N+](=O)[O-])CC1 [Example 202, tert-butyl 4-(5-(4-{[2-(4-chlorophenyl)-4,4-dimethylcyclohex-1-en-1-yl]methyl}piperazin-1-yl)-2-{[({4-[(1-methylpiperidin-4-yl)amino]-3-nitrophenyl}sulfonyl)amino]carbonyl}phenoxy)-1H-indole-1-carboxylate]
- pKi [1]: 7.70

Compound: CN1CCC(Nc2ccc(S(=O)(=O)NC(=O)c3ccc(N4CCN(CC5=C(c6ccc(Cl)cc6)CC(C)(C)CC5)CC4)cc3Nc3ccccc3Cl)cc2[N+](=O)[O-])CC1 [Example 230, 2-[(2-chlorophenyl)amino]-4-(4-{[2-(4-chlorophenyl)-4,4-dimethylcyclohex-1-en-1-yl]methyl}piperazin-1-yl)-N-({4-[(1-methylpiperidin-4-yl)amino]-3-nitrophenyl}sulfonyl)benzamide]
- pKi [1]: 8.55

Compound: CN1CCC(Nc2ccc(S(=O)(=O)NC(=O)c3ccc(N4CCN(CC5=C(c6ccc(Cl)cc6)CC(C)(C)CC5)CC4)cc3Oc3cccc(F)c3)cc2[N+](=O)[O-])CC1 [Example 112, 4-(4-{[2-(4-chlorophenyl)-4,4-dimethylcyclohex-1-en-1-yl]methyl}piperazin-1-yl)-2-(3-fluorophenoxy)-N-({4-[(1-methylpiperidin-4-yl)amino]-3-nitrophenyl}sulfonyl)benzamide]
- pKi [1]: 10.38

— patent US8952157B2, “Apoptosis-inducing agents for the treatment of cancer and immune and autoimmune diseases” (AbbVie Inc., priority 2008, dated 2015)
